Test results as given in patent US9090651B2, “Helix 12 directed pharmaceutical products” (ENDORECHERCHE, INC., priority 2004, dated 2015).
Several values for one entry are separate records, joined by “and”; a condition that tells them apart may be missing. Equal entries are not always repeated. Where two headings read alike, the source gives them in different places.

How the values were obtained:
[1] = test system: Shionogi mouse mammary carcinoma cells; test: Androgenic/antiandrogenic activity on DHT-stimulated Shionogi cell growth; format: cell-based
rat prostate = test: Systemic antiandrogenic activity, orchidectomized immature male rats with DHT implant: prostate weight; format: in vivo; settings: for inhibition in vivo at 0.5 mg: Rattus norvegicus, sc, 168 h, read-out: IN VIVO Rat s.c. (+DHT) Prostate % inhibition, s.c., 0.5 mg/animal once daily for 7 days, +DHT
Procedure: (§1) Immature male rats (Crl:CD(SD)Br) 22 to 24-day old were obtained from Charles-River, Inc. (St-Constant, Quebec, Canada) and housed up to 5 per cage in plastic bins in a temperature (23±1° C.)- and light (12 h light/day, lights on at 7 h15)-controlled environment. The rats were fed rodent chow and tap water ad libitum. The day following their arrival, the animals were orchidectomized (CX) under Isoflurane anesthesia via scrotal route and randomly assigned to groups of 5 animals.
(§2) Compounds were solubilized (when possible) in dimethylsulfoxide (DMSO, 10% final concentration) and administered as suspension in 0.4% methylcellulose. […] One group of animals received the antiandrogen Flutamide as reference. The animals were killed by cervical dislocation under isoflurane anesthesia on the 8th morning following castration. The ventral prostate and seminal vesicles were rapidly dissected and weighed.
(§3) W is the weight of the prostate or the seminal vesicle.

Human Androgen Receptor = molecular target: T1, Human Androgen Receptor (Homo sapiens, UniProt P10275); test: Androgen receptor binding assay (hydroxylapatite, [3H]R1881, cytosol of transfected HEK-293 cells); settings: % RBA=100×IC50 R1881/IC50 compound, transfected cells
T1 sequence (P10275 1-920): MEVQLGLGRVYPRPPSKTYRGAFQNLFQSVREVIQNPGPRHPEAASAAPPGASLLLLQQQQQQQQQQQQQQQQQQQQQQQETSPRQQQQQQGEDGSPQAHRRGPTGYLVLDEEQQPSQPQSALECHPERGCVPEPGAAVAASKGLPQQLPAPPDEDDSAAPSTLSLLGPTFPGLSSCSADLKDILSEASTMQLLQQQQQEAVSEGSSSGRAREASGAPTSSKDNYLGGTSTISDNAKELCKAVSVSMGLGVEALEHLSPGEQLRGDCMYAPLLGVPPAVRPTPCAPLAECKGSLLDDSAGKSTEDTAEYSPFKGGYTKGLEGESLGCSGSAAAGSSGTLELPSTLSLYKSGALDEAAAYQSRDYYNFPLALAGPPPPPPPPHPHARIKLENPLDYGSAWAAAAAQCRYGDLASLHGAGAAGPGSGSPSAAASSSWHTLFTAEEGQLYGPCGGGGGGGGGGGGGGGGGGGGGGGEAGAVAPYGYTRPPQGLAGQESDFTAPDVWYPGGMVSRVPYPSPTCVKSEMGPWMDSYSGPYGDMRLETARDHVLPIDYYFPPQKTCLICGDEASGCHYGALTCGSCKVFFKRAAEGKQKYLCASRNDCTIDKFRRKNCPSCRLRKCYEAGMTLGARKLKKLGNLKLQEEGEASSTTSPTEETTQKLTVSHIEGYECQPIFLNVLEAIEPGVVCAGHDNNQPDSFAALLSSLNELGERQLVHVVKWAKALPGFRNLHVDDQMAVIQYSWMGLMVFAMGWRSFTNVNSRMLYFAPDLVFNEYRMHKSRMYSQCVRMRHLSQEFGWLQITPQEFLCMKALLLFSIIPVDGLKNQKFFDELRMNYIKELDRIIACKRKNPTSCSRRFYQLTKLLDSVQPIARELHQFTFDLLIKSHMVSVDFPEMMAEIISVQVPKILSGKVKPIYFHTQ

rat seminal vesicle = test: Systemic antiandrogenic activity, orchidectomized immature male rats with DHT implant: seminal vesicle weight; format: in vivo; settings: for inhibition in vivo at 0.5 mg: Rattus norvegicus, sc, 168 h, read-out: IN VIVO Rat s.c. (+DHT) SV % inhibition, s.c., 0.5 mg/animal once daily for 7 days, +DHT
Procedure: as §1, §2, §3

[2] = Mus musculus, read-out: Shionogi Antiandrogenic activity IC50 (nM), inhibition of DHT-stimulated Shionogi cell number

SMILES | IC50 [1, 2] [nM] | inhibition in vivo at 0.5 mg (rat prostate) [%] | Androgen Receptor Binding (%) Human RBA R1881 = 100 (Human Androgen Receptor) | inhibition in vivo at 0.5 mg (rat seminal vesicle) [%] | further results
CCC(NC1CCCC1)c1cccc(OCC[C@]23CCC4C5CCC(=O)C=C5C[C@@H](C)C4C2CC[C@@H]3O)c1 (mixture of isomers) [EM-6681] | 1.1 | 15 | 56% | 19 | –
CCC(NC1CCCC1)c1cccc(OCC[C@]23CCC4C5CCC(=O)C=C5C[C@@H](C)C4C2CC[C@]3(C)O)c1 (mixture of isomers) [EM-6733] | 1.3 | 34 | 62% | – | IN VIVO Rat (+DHT) Prostate % inhibition (per os) (rat prostate; per os, +DHT): 34%; IN VIVO Rat (+DHT) SV % inhibition (per os) (rat seminal vesicle; per os, +DHT): 6%
CCC(CC)N(C)C(CC)c1cccc(OCC[C@]23CCC4=C5CCC(=O)C=C5CCC4C2CC[C@@H]3O)c1 (mixture of isomers) [EM-6860] | 5.2 | 12 | 33% | 0 | –
CCCC(NC(CC)CC)c1cccc(OCC[C@]23CCC4C5CCC(=O)C=C5C(C)(C)CC4C2CC[C@]3(C)O)c1 (mixture of isomers) [EM-7075] | 9.7 | 0 | 57% | 0 | –
CCC(CC)N(C)C(CC)c1cccc(OCC[C@]23CCC4C5CCC(=O)C=C5C[C@@H](C)C4C2CC[C@]3(C)O)c1 (mixture of isomers) [EM-7127] | 0.91 | 20 | 128% | 0 | –
CCCC(NC(C)C)c1cccc(OCC[C@]23C=CC4=C5CCC(=O)C=C5CCC4C2CC[C@@]3(C)O)c1 (mixture of isomers) [EM-7164] | 6 | – | 27% | 0 | –
C[C@@H]1CC2=CC(=O)CCC2C2CC[C@@]3(CCOc4cccc(C[S+]([O-])c5ccccc5)c4)C(CC[C@]3(C)O)C21 (mixture of isomers) [EM-7230] | – | 0 | 39% | 0 | –
C[C@]1(O)CCC2C3CCC4=CC(=O)CCC4C3CC[C@@]21CCOc1cccc(CN2CCCCC2)c1 (stereo partly drawn) [EM-6654] | 9.5 | 0 | 25% | – | –
CCC(Cc1cccc(OCC[C@]23CCC4C5CCC(=O)C=C5CCC4C2CC[C@@H]3O)c1)NC1CCCC1 (stereo partly drawn) [EM-6753] | 19 | 0 | 8.2% | – | –
CCC(NC1CCCCC1)c1cccc(OCC[C@]23CCC4C(CCC5=CC(=O)CC[C@@]54C)C2CC[C@@H]3O)c1 (stereo partly drawn) [EM-6798] | – | 20 | 118% | 29 | IN VIVO Rat (+DHT) Prostate % inhibition (1 mg, po) (rat prostate; 1 mg, po, +DHT): 17%; IN VIVO Rat (+DHT) SV % inhibition (1 mg, po) (rat seminal vesicle; 1 mg, po, +DHT): 19%
CCC(NC(C)C)c1cccc(OCC[C@]23CCC4C(CCC5=CC(=O)CC[C@@]54C)C2CC[C@]3(C)O)c1 (stereo partly drawn) [EM-6918] | – | 29 | 120% | 0 | –
CCCC(NC(CC)CC)c1cccc(OCC[C@]23CCC4C(CCC5=CC(=O)CC[C@@]54C)C2CC[C@@H]3O)c1 (stereo partly drawn) [EM-6928] | – | – | 146% and 181% | – | IC50 ([1]; read-out: Shionogi Antiandrogenic activity IC50, inhibition of DHT-stimulated Shionogi cell number): 0.04 nM; IN VIVO Rat s.c. (+DHT) SV % inhibition (rat seminal vesicle; s.c., 0.5 mg/animal once daily for 7 days, +DHT): 0%
CCCC(NC(CC)CC)c1cccc(OCC[C@]23CCC4C5CCC(=O)C=C5C(C)(C)CC4C2CCC3=O)c1 (stereo partly drawn) [EM-6993] | 16.4 | – | 35% | 0 | –
CC[C@@H](NC1CCCCC1)c1cccc(OCC[C@]23CCC4C(CCC5CC(=O)CC[C@@]54C)C2CCC3O)c1 (stereo partly drawn) [EM-7062] | 0.7 | – | 535% | – | –
CC[C@@H](NC1CCCCC1)c1cccc(OCC[C@]23CCC4C(CCC5CC(=O)CC[C@@]54C)C2CCC3=O)c1 (stereo partly drawn) [EM-7063] | 0.51 | – | 115% | – | –
CCC(NC1CCCCC1)c1cncc(OCC[C@]23CCC4C(CCC5CC(=O)CC[C@@]54C)C2CCC3O)c1 (stereo partly drawn) [EM-7093] | 0.16 | – | 361.8% | – | –
CCC(NC1CCCCC1)c1cncc(OCC[C@]23CCC4C(CCC5=CC(=O)CC[C@@]54C)C2CCC3O)c1 (stereo partly drawn) [EM-7094] | 1.4 | – | 70.8% | – | –
CCC(NCC1CCCO1)c1ccnc(OCC[C@]23CCC4C(CCC5CC(=O)CC[C@@]54C)C2CC[C@@H]3O)c1 (stereo partly drawn) [EM-7104] | 2.8 | – | 54.3% | – | –
CCC(c1cncc(OCC[C@]23CCC4C(CCC5CC(=O)CC[C@@]54C)C2CCC3O)c1)N1CCOCC1 (stereo partly drawn) [EM-7106] | 81 | – | 2.5% | – | –
CCC(NC1CCOCC1)c1cncc(OCC[C@]23CCC4C(CCC5CC(=O)CC[C@@]54C)C2CCC3O)c1 (stereo partly drawn) [EM-7107] | 1 | – | 66.2% | – | –
CCC1COCC(c2cccc(OCC[C@]34CCC5C(CCC6CC(=O)CC[C@@]65C)C3CCC4O)c2)N1 (stereo partly drawn) [EM-7111] | 13 | – | 39% | – | –
CN(C)CC(NC1CCCCC1)c1cccc(OCC[C@]23CCC4C(CCC5CC(=O)CC[C@@]54C)C2CCC3O)c1 (stereo partly drawn) [EM-7131] | 35 | – | 125.7% | – | –
CCC(NC1CCCC1)c1cc(OCC[C@]23CCC4C(CCC5=CC(=O)CC[C@@]54C)C2CCC3O)ccn1 (stereo partly drawn) [EM-7165] | 1.4 | – | 26.6% | – | –
CCC(NC1CCCCC1)c1cc(OCC[C@]23CCC4C(CCC5=CC(=O)CC[C@@]54C)C2CCC3O)ccn1 (stereo partly drawn) [EM-7166] | 3.5 | – | 22.3% | – | –
CCC(NC1CCOCC1)c1cncc(OCC[C@]23CCC4C(CCC5=CC(=O)CC[C@@]54C)C2CCC3O)c1 (stereo partly drawn) [EM-7176] | 7.2 | – | 16% | – | –
COCC(NC1CCCCC1)c1cncc(OCC[C@]23CCC4C(CCC5=CC(=O)CC[C@@]54C)C2CCC3O)c1 (stereo partly drawn) [EM-7184] | 7.4 | – | 57% | – | –
CCCC(NC1CCCC1)c1cccc(OCC[C@]23CCC4C5CCC(=O)C=C5C[C@H](C)C4C2CC[C@]3(C)O)c1 (stereo partly drawn) [EM-7218] | – | 35 | 112% | 0 | –
CN(C)CC(NC1CCCCC1)c1cncc(OCC[C@]23CCC4C(CCC5=CC(=O)CC[C@@]54C)C2CCC3O)c1 (stereo partly drawn) [EM-7221] | 11 | – | 20% | – | –
